Values joined by “and” are separate entries in the source; they are usually repeats but may differ in a detail not shown here. Equal entries are not always repeated. Toxic doses and inconclusive results are not listed.

T/C data for 22 compounds are collected here from PubChem BioAssay AID330 (DTP/NCI, 2004).

This test relates to P388 leukemia ip, CD2F1 mice, survival T/C. The test can be described thus: NCI In Vivo Anticancer Drug Screen. Data for tumor model P388 Leukemia (intraperitoneal) in CD2F1 (CDF1) mice. Particulars: endpoint: median survival time, higher = longer survival. In short, it runs like this: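 Mice carrying the transplanted tumor received test compound or vehicle. Survival was recorded in each group, and the value is the treated-group measurement divided by that of the vehicle-treated control group.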

Where [1] appears, read: dose: 50.0 mg/kg/injection, schedule: Q01DX005 (ip), vehicle: saline.
Where [2] appears, read: dose: 50.0 mg/kg/injection, schedule: Q01DX005 (ip), vehicle: saline with Tween-80.
[3] abbreviates: dose: 100.0 mg/kg/injection, schedule: Q01DX005 (ip), vehicle: saline with Tween-80.
Setting [4] is: dose: 100.0 mg/kg/injection, schedule: Q01DX009 (ip), vehicle: saline with Tween-80.
Where [5] appears, read: dose: 60.0 mg/kg/injection, schedule: Q01DX005 (ip), vehicle: Klucel (hydroxypropylcellulose) (HPC).
Setting [6] is: dose: 120.0 mg/kg/injection, schedule: Q01DX005 (ip), vehicle: Klucel (hydroxypropylcellulose) (HPC).
Setting [7] is: dose: 240.0 mg/kg/injection, schedule: Q01DX005 (ip), vehicle: Klucel (hydroxypropylcellulose) (HPC).

As to `NC(=O)c1ncn(C2OC(CO)C(O)C2O)n1` (centres undefined), the T/C (dose: 10.0 mg/kg/injection, schedule: Q01DX009 (ip), vehicle: saline) was 99 % of control and 101 % of control; the T/C (dose: 20.0 mg/kg/injection, schedule: Q01DX009 (ip), vehicle: saline) is 104 % of control; the T/C (dose: 40.0 mg/kg/injection, schedule: Q01DX009 (ip), vehicle: saline) is 105 % of control and 106 % of control and 109 % of control; the T/C (dose: 80.0 mg/kg/injection, schedule: Q01DX009 (ip), vehicle: saline) was 108 % of control and 112 % of control and 118 % of control; the T/C (dose: 160.0 mg/kg/injection, schedule: Q01DX009 (ip), vehicle: saline) was 122 % of control; the T/C (dose: 320.0 mg/kg/injection, schedule: Q01DX009 (ip), vehicle: saline) is 87 % of control.

`NC(CCS(=O)(=O)NCCCl)C(=O)O` (centres undefined): the T/C reads like this: (dose: 12.5 mg/kg/injection, schedule: Q01DX009 (ip), vehicle: water) 103 % of control; (dose: 25.0 mg/kg/injection, schedule: Q01DX009 (ip), vehicle: water) 105 % of control; (dose: 50.0 mg/kg/injection, schedule: Q01DX009 (ip), vehicle: water) 104 % of control; (dose: 100.0 mg/kg/injection, schedule: Q01DX009 (ip), vehicle: water) 102 % of control; (dose: 200.0 mg/kg/injection, schedule: Q01DX009 (ip), vehicle: water) 105 % of control.

For `Cc1ccc(NNC(=O)C(=O)O[C@H]2C(=O)OC[C@@H]2O)cc1`, the T/C by setting is: (dose: 50.0 mg/kg/injection, schedule: Q01DX005 (ip), vehicle: Klucel (hydroxypropylcellulose) (HPC)) 100 % of control; (dose: 100.0 mg/kg/injection, schedule: Q01DX005 (ip), vehicle: Klucel (hydroxypropylcellulose) (HPC)) 100 % of control; (dose: 200.0 mg/kg/injection, schedule: Q01DX005 (ip), vehicle: Klucel (hydroxypropylcellulose) (HPC)) 93 % of control.

For the compound `CCSC1C(=O)N(C)C(SCC)C(=O)N1C` (centres undefined), the T/C (dose: 12.5 mg/kg/injection, schedule: Q01DX009 (ip), vehicle: saline) is 103 % of control; the T/C (dose: 25.0 mg/kg/injection, schedule: Q01DX009 (ip), vehicle: saline) is 109 % of control; the T/C (dose: 50.0 mg/kg/injection, schedule: Q01DX009 (ip), vehicle: saline) was 100 % of control and 86 % of control.

`CC(C)C(=O)NCCCCCCN1CCCCC1`: the T/C reads like this: under setting [1], 96 % of control; (dose: 100.0 mg/kg/injection, schedule: Q01DX005 (ip), vehicle: saline) 100 % of control.

On to `C[C@@H]1C[C@@H]2c3cccc4c3c(cn4CO)C[C@H]2N(C)C1`, for which the T/C is, setting by setting: under setting [2], 100 % of control; under setting [3], 100 % of control; (dose: 200.0 mg/kg/injection, schedule: Q01DX005 (ip), vehicle: saline with Tween-80) 107 % of control.

Consider `Cc1cc(Cl)nc2c1ccn2C1OC(CO)C(O)C1O` (centres undefined), for which the T/C is 100 % of control (dose: 32.0 mg/kg/injection, schedule: Q01DX001 (ip), vehicle: saline); 100 % of control (dose: 64.0 mg/kg/injection, schedule: Q01DX001 (ip), vehicle: saline); 102 % of control (dose: 128.0 mg/kg/injection, schedule: Q01DX001 (ip), vehicle: saline).

On to `COc1nc2c(c(O)cn2C2OCC(OC(C)=O)C(OC(C)=O)C2OC(C)=O)c(=O)n1C` (centres undefined), for which the T/C (dose: 100.0 mg/kg/injection, schedule: Q01DX001 (ip), vehicle: saline with Tween-80) is 106 % of control; the T/C (dose: 200.0 mg/kg/injection, schedule: Q01DX001 (ip), vehicle: saline with Tween-80) is 92 % of control; the T/C (dose: 400.0 mg/kg/injection, schedule: Q01DX001 (ip), vehicle: saline with Tween-80) is 99 % of control.

`CC(=O)C[n+]1ccc(C)cc1Sc1ccccc1C`: the T/C (dose: 25.0 mg/kg/injection, schedule: Q01DX005 (ip), vehicle: saline with Tween-80) was 101 % of control and 103 % of control; the T/C under setting [2] was 111 % of control and 113 % of control and 122 % of control; the T/C under setting [3] is 118 % of control and 120 % of control.

As for `CC1=NCc2c(nnn2C)N1`, the T/C (dose: 100.0 mg/kg/injection, schedule: Q01DX001 (ip), vehicle: Klucel (hydroxypropylcellulose) (HPC)) is 104 % of control and the T/C (dose: 200.0 mg/kg/injection, schedule: Q01DX001 (ip), vehicle: Klucel (hydroxypropylcellulose) (HPC)) is 101 % of control.

As to `N=C(N)COc1ccccc1`, the T/C (dose: 12.5 mg/kg/injection, schedule: Q01DX005 (ip), vehicle: saline) was 95 % of control; the T/C (dose: 25.0 mg/kg/injection, schedule: Q01DX005 (ip), vehicle: saline) is 95 % of control; the T/C under setting [1] is 99 % of control and 101 % of control.

Take `CC(=N\O)/C(=N/O)c1ccccc1`: the T/C was 106 % of control (dose: 50.0 mg/kg/injection, schedule: Q04DX003 (ip), vehicle: saline with Tween-80); 98 % of control (dose: 100.0 mg/kg/injection, schedule: Q04DX003 (ip), vehicle: saline with Tween-80); 98 % of control (dose: 200.0 mg/kg/injection, schedule: Q04DX003 (ip), vehicle: saline with Tween-80); 104 % of control (dose: 400.0 mg/kg/injection, schedule: Q04DX003 (ip), vehicle: saline with Tween-80).

For `Cc1cc(=O)n2c(n1)Nc1ccc(Cl)cc1C2`, the T/C is 100 % of control (dose: 50.0 mg/kg/injection, schedule: Q01DX009 (ip), vehicle: saline with Tween-80) and 98 % of control under setting [4].

As for `COc1ccc2[s+]c(-c3ccccc3)ccc2c1`, the T/C is, setting by setting: under setting [5], 100 % of control; under setting [6], 108 % of control; under setting [7], 111 % of control.

For the compound `COc1ccc2ccccc2c1/C=N/N1CCCCC1`, the T/C runs as follows: under setting [4], 100 % of control; (dose: 200.0 mg/kg/injection, schedule: Q01DX009 (ip), vehicle: saline with Tween-80) 104 % of control; (dose: 400.0 mg/kg/injection, schedule: Q01DX009 (ip), vehicle: saline with Tween-80) 95 % of control.

As for `O=C1C=CC(=Nc2ccc(N(CCCl)CCCl)cc2)c2ccccc21`, the T/C was 171 % of control (dose: 50.0 mg/kg/injection, schedule: Q01DX009 (ip), vehicle: Klucel (hydroxypropylcellulose) (HPC)); 156 % of control and 181 % of control (dose: 100.0 mg/kg/injection, schedule: Q01DX009 (ip), vehicle: Klucel (hydroxypropylcellulose) (HPC)).

As to `O[C@H]1c2cccn2-c2ccccc2S[C@H]1c1ccccc1`, the T/C by setting is: under setting [5], 91 % of control; under setting [6], 94 % of control; under setting [7], 102 % of control.

With `CCc1cccc(CC)c1N1CC(C(=O)O)CC1=O` (centres undefined), the T/C is, setting by setting: under setting [5], 107 % of control; under setting [6], 101 % of control; under setting [7], 101 % of control.

Consider `CC1=CC2C(O)(CC3(COC(=O)/C=C/c4ccccc4)OC3C3C4C(C)(C)C4(OC(=O)/C=C/c4ccccc4)C(OC(=O)/C=C/c4ccccc4)C(C)C32O)C1=O` (centres undefined), for which the T/C runs as follows: (dose: 0.2 mg/kg/injection, schedule: Q01DX005 (ip), vehicle: saline + alcohol) 100 % of control; (dose: 0.4 mg/kg/injection, schedule: Q01DX005 (ip), vehicle: saline + alcohol) 100 % of control; (dose: 0.8 mg/kg/injection, schedule: Q01DX005 (ip), vehicle: saline + alcohol) 100 % of control; (dose: 1.6 mg/kg/injection, schedule: Q01DX005 (ip), vehicle: saline + alcohol) 98 % of control; (dose: 3.2 mg/kg/injection, schedule: Q01DX005 (ip), vehicle: saline + alcohol) 104 % of control.

Turning to `CCCN(C)C(=O)N(CCCl)N=O`, the T/C is, setting by setting: (dose: 16.0 mg/kg/injection, schedule: Q01DX001 (ip), vehicle: water) 166 % of control; (dose: 32.0 mg/kg/injection, schedule: Q01DX001 (ip), vehicle: water) 240 % of control.

Consider `CCCCCCCCCCCCCCCC[N+](C)(C)CCBr`, for which the T/C was 109 % of control and 100 % of control (dose: 3.13 mg/kg/injection, schedule: Q01DX009 (ip), vehicle: saline with Tween-80); 122 % of control and 93 % of control and 103 % of control (dose: 6.25 mg/kg/injection, schedule: Q01DX009 (ip), vehicle: saline with Tween-80); 115 % of control [middle of 4 runs] (dose: 12.5 mg/kg/injection, schedule: Q01DX009 (ip), vehicle: saline with Tween-80).

On to `O=C(NC(Cc1c[nH]c2ccccc12)C(=O)O)C(=O)c1c[nH]c2ccccc12` (centres undefined), for which the T/C was 100 % of control (dose: 60.0 mg/kg/injection, schedule: Q01DX005 (ip), vehicle: saline with Tween-80); 97 % of control (dose: 120.0 mg/kg/injection, schedule: Q01DX005 (ip), vehicle: saline with Tween-80); 90 % of control (dose: 240.0 mg/kg/injection, schedule: Q01DX005 (ip), vehicle: saline with Tween-80).
